Measured values from publication PMC6037691, “Selenazolyl-hydrazones as Novel Selective MAO Inhibitors With Antiproliferative and Antioxidant Activities: Experimental and In-silico Studies” (Frontiers in Chemistry, 2018).

Tests used:
T-47D (breast) = assay: Antiproliferative activity, T-47D; format: cell-based, human
Description: (§1) The in vitro antiproliferative activity of investigated compounds was evaluated against six human solid tumor cell lines: A549 (non-small cell lung), HBL-100, (breast), HeLa (cervix), SW1573 (non-small cell lung), as drug sensitive lines, T-47D (breast) and WiDr (colon) as drug resistant lines. These cell lines were a kind gift from Prof. G. J. Peters (VU Medical Center, Amsterdam, The Netherlands). For selectivity studies, the human fibroblasts BJ-hTert cell line was used, which was obtained from Dr. R. Freire (HUC, Tenerife, Canary Islands). Cells were kept in culture medium under standard conditions: RPMI 1640 medium, fetal bovine serum (5%), glutamine (2 mM), penicillin G (100 units/mL) and streptomycin (0.1 mg/mL). Antiproliferative tests were conducted as described earlier (Skehan et al., [1990]; Miranda et al., [2006]). Tested compounds were dissolved in DMSO at an initial concentration of 40 mM. DMSO was used as negative control (0.25% v/v). Antiproliferative activity of the compounds was expressed as GI50, which is the concentration of the compound that inhibits 50% of the culture growth.

[1] = test system: human fibroblasts BJ-hTert cell line; assay: Selectivity, non-transformed fibroblasts BJ-hTert; format: cell-based; conditions: Fibroblast; BJ-hTert normal human cell line; concentrations up to 100 μM
Description: as §1

MAO A = target: T1, MAO A (Homo sapiens, UniProt P21397); assay: MAO A inhibition, discontinuous fluorimetric kynuramine assay; format: biochemical; conditions: for inhibition at 1 µM: 1 μM inhibitor, mean ± SD, n = 2, normalized to control
T1 construct: purchased Sigma-Aldrich
T1 sequence (P21397 1-527): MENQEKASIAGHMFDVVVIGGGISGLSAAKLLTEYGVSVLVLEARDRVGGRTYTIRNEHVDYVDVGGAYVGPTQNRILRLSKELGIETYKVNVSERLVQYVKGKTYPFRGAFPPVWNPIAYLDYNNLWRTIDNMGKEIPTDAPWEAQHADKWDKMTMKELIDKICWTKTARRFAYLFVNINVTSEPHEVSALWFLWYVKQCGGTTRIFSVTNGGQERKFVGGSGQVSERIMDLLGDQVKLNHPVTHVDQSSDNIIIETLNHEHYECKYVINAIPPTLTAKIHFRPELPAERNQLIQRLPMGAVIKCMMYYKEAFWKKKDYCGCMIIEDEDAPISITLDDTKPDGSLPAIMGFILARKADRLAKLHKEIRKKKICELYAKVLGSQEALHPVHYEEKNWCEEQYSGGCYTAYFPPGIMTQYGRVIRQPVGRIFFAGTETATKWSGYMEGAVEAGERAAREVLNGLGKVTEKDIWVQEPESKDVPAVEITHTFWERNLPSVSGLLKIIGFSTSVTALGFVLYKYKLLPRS
Description: (§2) MAO A and B inhibition capacities were investigated using a discontinuous fluorimetric assay (Meiring et al., [2013]) as described previously by using human recombinant membrane-bound MAO purchased from Sigma-Aldrich (Affini et al., [2018]). Briefly, remained enzyme activity with inhibitor, either 1 μM (one-point) or concentrations ranging from 0.0001 to 10 μM, was assessed in the presence of kynuramine [2 × KM, KM = 20 μM (MAO A), KM = 30 μM (MAO B)] in potassium phosphate buffer (pH 7.4). Reactions were started by addition of enzyme and stopped by manual addition of sodium hydroxide (2 N) after 20 min. Enzyme activity was determined by detection of 4-hydroxyquinoline (λEx = 320 nm, λEm = 405 nm). Data were analyzed using GraphPad PRISM 6. For one-point measurements data were calculated as percentage of control and expressed as mean ± standard deviation (%). […] Data were obtained from two (one-point measurements) or at least three (IC50 values) independent experiments, each performed in duplicates.

HeLa (cervix) = assay: Antiproliferative activity, HeLa; format: cell-based, human; conditions: for GI50: Homo sapiens
Description: as §1

MAO B = target: T2, MAO B (Homo sapiens, UniProt P27338); assay: MAO B inhibition, discontinuous fluorimetric kynuramine assay; format: biochemical; conditions: for inhibition at 1 µM: 1 μM inhibitor, mean ± SD, n = 2, normalized to control
T2 construct: purchased Sigma-Aldrich
T2 sequence (P27338 1-520): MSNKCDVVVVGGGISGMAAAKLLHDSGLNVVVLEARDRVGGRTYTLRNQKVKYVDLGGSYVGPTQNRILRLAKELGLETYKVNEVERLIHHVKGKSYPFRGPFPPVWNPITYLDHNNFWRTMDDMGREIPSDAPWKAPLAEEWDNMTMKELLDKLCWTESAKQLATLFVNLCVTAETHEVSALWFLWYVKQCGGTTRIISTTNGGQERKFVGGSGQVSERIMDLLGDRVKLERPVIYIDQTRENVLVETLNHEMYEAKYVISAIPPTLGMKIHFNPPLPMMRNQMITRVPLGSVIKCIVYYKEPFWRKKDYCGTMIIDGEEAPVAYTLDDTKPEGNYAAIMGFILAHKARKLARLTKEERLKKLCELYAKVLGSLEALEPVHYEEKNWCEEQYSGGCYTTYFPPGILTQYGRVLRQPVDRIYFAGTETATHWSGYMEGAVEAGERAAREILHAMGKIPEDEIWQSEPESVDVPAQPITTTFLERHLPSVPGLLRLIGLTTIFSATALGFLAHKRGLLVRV
Description: as §2

[2] = test system: six human solid tumor cell lines; assay: Antiproliferative activity, panel as a whole; format: cell-based; design: key: moderate activity (GI50 = 10–100 μM); good activity (GI50 = 1–10 μM); inactive (GI50 > 100 μM); conditions: five cell lines of the six
Description: as §1

[3] = mean, 95% CI, at least three experiments

GI50 (T-47D (breast); Homo sapiens, T47D) | IC50 (MAO A; [3]) | IC50 (MAO B; [3]) | SMILES | antiproliferative activity class T-47D (T-47D (breast); T-47D) | GI50 [1] | melting point | inhibition at 1 µM (MAO A) | antiproliferative activity class HeLa (HeLa (cervix)) | GI50 (HeLa (cervix)) | inhibition at 1 µM (MAO B) | GI50 (T-47D (breast); Homo sapiens, T47D, T-47D) | antiproliferative activity class against five cell lines [2] | GI50 (T-47D (breast); T-47D)
6.4 ± 0.9 µM | > 10 µM | 0.252 µM | C(=NNc1nc(-c2ccccc2)c[se]1)c1ccccc1 [Compound 1, 2-(2-benzylidenehydrazinyl)-4-phenyl-1,3-selenazole] | good activity (good activity (GI50 = 1–10 μM)) | > 100 µM | 178 to 180 °C | -6.8 ± 12.6% | moderate activity (moderate activity (GI50 = 10–100 μM)) | 41 ± 9.5 µM | 89.4 ± 1.5% | – | – | –
– | – | – | COc1ccc(-c2c[se]c(NN=Cc3ccccc3)n2)cc1 [Compound 1-OMe, 2-(2-benzylidenehydrazinyl)-4-(4-methoxyphenyl)-1,3-selenazole] | – | > 100 µM | 180 to 182 °C | 32.4 ± 3.3% | – | > 100 µM | 33 ± 11.6% | > 100 µM | inactive | –
– | – | – | O=[N+]([O-])c1ccccc1C=NNc1nc(-c2ccccc2)c[se]1 [Compound 2, 2-(2-(2-nitrobenzylidene)hydrazinyl)-4-phenyl-1,3-selenazole] | – | > 100 µM | 183 to 184 °C | 26.5 ± 3.7% | good activity (good activity (GI50 = 1–10 μM)) | 6 ± 0.7 µM | 64.8 ± 6.1% | ~10 µM | – | 12 ± 1.5 µM
– | – | – | Cc1ccc(-c2c[se]c(NN=Cc3ccccc3[N+](=O)[O-])n2)cc1 [Compound 2-Me, 2-(2-(2-nitrobenzylidene)hydrazinyl)-4-(p-tolyl)-1,3-selenazole] | – | > 100 µM | 170 to 171 °C | 17.2 ± 1.9% | good activity (good activity (GI50 = 1–10 μM)) | 7.4 ± 1.4 µM | 22.1 ± 8.7% | ~10 µM | – | 13 ± 1.3 µM
– | – | – | COc1ccc(-c2c[se]c(NN=Cc3ccccc3[N+](=O)[O-])n2)cc1 [Compound 2-OMe, 4-(4-methoxyphenyl)-2-(2-(2-nitrobenzylidene)hydrazinyl)-1,3-selenazole] | – | > 100 µM | 165 to 166 °C | 28 ± 4% | – | 49 ± 12 µM | 35.9 ± 11.2% | 36 ± 8.6 µM | – | –
– | – | – | O=[N+]([O-])c1cccc(C=NNc2nc(-c3ccccc3)c[se]2)c1 [Compound 3, 2-(2-(3-nitrobenzylidene)hydrazinyl)-4-phenyl-1,3-selenazole] | – | > 100 µM | 216 to 218 °C | 32.7 ± 6.2% | – | 24 ± 7.1 µM | 57.5 ± 11.4% | 52 ± 13 µM | – | –
– | – | – | Cc1ccc(-c2c[se]c(NN=Cc3cccc([N+](=O)[O-])c3)n2)cc1 [Compound 3-Me, 2-(2-(3-nitrobenzylidene)hydrazinyl)-4-(p-tolyl)-1,3-selenazole] | – | > 100 µM | 203 to 206 °C | 13.4 ± 2.4% | – | 31 ± 4 µM | 7.4 ± 27% | 46 ± 9.7 µM | – | –
– | – | – | COc1ccc(-c2c[se]c(NN=Cc3cccc([N+](=O)[O-])c3)n2)cc1 [Compound 3-OMe, 4-(4-methoxyphenyl)-2-(2-(3-nitrobenzylidene)hydrazinyl)-1,3-selenazole] | – | > 100 µM | 201 to 203 °C | 31.2 ± 1.6% | – | 26 ± 2 µM | 23.8 ± 7.7% | 67 ± 2.2 µM | – | –
